Key:
[1] = target: JAK1 (Homo sapiens (Human), UniProt P23458); experiment: Biochemical JAK kinase assay (LanthaScreen), JAK1
Procedure: (§1) A panel of four LanthaScreen JAK biochemical assays (JAK1, 2, 3 and Tyk2) were carried in a common kinase reaction buffer (50 mM HEPES, pH 7.5, 0.01% Brij-35, 10 mM MgCl2, and 1 mM EGTA). Recombinant GST-tagged JAK enzymes and a GFP-tagged STAT1 peptide substrate were obtained from Life Technologies.
(§2) Serially diluted compounds were pre-incubated with each of the four JAK enzymes and the substrate in white 384-well microplates (Corning) at ambient temperature for 1 h. ATP was subsequently added to initiate the kinase reactions in 10 μL total volume, with 1% DMSO. […] The plates were allowed to incubate at ambient temperature for 1 h before being read on the EnVision reader (Perkin Elmer).
(§3) For dose-response analysis, percent inhibition data were plotted vs. compound concentrations, and IC50 values were determined from a 4-parameter robust fit model with the Prism software (GraphPad Software). Results were expressed as pIC50 (negative logarithm of IC50) and subsequently converted to pKi (negative logarithm of dissociation constant, Ki) using the Cheng-Prusoff equation.

[2] = target: JAK2 (Homo sapiens (Human), UniProt O60674); experiment: Biochemical JAK kinase assay (LanthaScreen), JAK2
Sequence of JAK2 (O60674 whole entry): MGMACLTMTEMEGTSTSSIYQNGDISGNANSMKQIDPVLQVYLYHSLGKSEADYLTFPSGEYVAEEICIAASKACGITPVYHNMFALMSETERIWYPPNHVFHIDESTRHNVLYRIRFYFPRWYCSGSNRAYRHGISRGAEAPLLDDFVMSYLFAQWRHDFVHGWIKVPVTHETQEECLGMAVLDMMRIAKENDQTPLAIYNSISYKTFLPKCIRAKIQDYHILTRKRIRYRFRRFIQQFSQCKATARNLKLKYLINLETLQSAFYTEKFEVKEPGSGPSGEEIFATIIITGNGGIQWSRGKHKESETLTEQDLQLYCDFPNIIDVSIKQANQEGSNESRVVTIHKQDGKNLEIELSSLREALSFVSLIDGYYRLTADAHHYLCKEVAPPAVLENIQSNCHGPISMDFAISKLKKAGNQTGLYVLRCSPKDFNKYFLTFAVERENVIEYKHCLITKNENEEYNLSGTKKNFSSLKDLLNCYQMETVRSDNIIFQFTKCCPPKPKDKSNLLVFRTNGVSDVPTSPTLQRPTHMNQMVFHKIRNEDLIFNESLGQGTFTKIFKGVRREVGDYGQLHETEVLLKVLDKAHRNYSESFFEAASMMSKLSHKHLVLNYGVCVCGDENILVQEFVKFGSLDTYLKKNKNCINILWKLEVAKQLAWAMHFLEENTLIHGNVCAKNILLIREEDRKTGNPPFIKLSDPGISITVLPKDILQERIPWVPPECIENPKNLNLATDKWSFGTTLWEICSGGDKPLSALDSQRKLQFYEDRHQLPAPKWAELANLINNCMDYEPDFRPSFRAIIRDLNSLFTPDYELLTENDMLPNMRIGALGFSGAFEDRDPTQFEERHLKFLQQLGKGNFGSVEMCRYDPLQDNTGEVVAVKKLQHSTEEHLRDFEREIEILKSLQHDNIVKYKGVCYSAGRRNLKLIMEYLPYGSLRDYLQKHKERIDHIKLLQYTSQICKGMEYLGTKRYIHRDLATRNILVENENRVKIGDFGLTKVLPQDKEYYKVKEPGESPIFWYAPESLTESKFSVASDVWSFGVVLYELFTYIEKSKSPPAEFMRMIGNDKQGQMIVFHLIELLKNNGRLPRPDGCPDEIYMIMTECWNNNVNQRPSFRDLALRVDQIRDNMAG
Procedure: as §1, §2, §3

[3] = target: JAK3 (Homo sapiens (Human), UniProt P52333); experiment: Biochemical JAK kinase assay (LanthaScreen), JAK3
Sequence of JAK3 (P52333 whole entry): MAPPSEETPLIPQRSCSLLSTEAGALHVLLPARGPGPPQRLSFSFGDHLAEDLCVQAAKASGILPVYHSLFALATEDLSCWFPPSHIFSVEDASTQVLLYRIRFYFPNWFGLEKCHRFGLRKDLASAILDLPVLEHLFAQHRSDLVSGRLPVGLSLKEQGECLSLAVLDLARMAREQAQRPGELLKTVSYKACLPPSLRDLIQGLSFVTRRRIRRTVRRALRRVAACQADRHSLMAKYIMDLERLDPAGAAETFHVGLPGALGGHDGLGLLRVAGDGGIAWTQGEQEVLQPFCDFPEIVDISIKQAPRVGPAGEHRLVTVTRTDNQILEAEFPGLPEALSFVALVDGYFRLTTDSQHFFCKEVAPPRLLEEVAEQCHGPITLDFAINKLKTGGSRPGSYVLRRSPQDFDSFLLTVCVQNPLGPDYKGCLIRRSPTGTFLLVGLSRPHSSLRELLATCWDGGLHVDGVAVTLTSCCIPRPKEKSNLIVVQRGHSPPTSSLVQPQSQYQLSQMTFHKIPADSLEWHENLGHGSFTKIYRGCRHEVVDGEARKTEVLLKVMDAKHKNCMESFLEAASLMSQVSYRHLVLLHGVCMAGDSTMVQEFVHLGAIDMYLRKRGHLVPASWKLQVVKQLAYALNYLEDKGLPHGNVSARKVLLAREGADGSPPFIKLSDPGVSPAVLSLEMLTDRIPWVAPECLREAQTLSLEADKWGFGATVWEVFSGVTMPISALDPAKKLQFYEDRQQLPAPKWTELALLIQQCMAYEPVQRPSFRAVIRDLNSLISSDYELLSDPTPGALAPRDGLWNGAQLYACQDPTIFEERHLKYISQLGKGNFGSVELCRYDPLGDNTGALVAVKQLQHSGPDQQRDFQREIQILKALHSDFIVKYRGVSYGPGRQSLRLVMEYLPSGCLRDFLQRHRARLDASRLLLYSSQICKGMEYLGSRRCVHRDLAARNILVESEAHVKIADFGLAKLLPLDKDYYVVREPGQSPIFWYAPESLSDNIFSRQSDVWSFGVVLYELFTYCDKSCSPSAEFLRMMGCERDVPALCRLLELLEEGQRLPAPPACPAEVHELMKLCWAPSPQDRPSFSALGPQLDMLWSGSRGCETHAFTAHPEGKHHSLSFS
Procedure: as §1, §2, §3

[4] = target: Tyk2 (Homo sapiens (Human), UniProt P29597); experiment: Biochemical JAK kinase assay (LanthaScreen), Tyk2
Sequence of Tyk2 (P29597 whole entry): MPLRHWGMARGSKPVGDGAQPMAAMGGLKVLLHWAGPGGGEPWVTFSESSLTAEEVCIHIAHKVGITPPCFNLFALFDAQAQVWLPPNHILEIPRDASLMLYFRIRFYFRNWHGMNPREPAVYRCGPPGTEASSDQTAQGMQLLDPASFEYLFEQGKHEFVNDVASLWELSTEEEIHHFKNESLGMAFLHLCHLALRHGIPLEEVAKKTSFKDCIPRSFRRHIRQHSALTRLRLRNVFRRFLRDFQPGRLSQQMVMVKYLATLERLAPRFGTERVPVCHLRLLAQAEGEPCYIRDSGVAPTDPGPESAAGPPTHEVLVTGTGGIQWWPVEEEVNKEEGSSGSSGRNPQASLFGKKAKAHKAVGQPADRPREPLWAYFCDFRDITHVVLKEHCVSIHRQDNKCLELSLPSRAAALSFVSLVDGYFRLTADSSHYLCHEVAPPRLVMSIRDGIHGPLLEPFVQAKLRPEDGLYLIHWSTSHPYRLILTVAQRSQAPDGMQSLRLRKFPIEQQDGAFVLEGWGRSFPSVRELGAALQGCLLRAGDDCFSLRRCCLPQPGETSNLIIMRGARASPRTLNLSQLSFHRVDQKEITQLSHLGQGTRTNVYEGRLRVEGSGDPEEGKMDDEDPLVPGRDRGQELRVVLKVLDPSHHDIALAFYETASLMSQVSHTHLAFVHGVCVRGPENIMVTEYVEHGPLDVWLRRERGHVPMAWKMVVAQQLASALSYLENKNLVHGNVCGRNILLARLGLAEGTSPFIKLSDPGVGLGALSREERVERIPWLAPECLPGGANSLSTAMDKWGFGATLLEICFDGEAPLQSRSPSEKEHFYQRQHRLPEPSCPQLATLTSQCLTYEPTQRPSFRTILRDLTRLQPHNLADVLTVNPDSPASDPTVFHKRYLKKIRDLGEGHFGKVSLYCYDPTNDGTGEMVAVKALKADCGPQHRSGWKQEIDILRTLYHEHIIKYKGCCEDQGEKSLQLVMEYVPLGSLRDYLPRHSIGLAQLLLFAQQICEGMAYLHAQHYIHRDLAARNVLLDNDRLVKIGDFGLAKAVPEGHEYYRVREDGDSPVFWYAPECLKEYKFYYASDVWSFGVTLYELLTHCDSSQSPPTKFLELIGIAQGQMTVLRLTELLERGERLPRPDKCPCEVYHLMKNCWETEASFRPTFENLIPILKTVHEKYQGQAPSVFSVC
Procedure: as §1, §2, §3

[5] = tested on: IL-13 induced STAT6 phosphorylation in BEAS-2B human lung epithelial cells; experiment: Cellular JAKI potency assay (AlphaScreen, BEAS-2B); assay type: cell-based; details: BEAS-2B cells
Procedure: The AlphaScreen JAKI cellular potency assay was carried out by measuring interleukin-13 (IL-13, R&D Systems) induced STAT6 phosphorylation in BEAS-2B human lung epithelial cells (ATCC). The anti-STAT6 antibody (Cell Signaling Technologies) was conjugated to AlphaScreen acceptor beads (Perkin Elmer), while the anti-pSTAT6 (pTyr641) antibody (Cell Signaling Technologies) was biotinylated using EZ-Link Sulfo-NHS-Biotin (Thermo Scientific).
BEAS-2B cells were grown at 37° C. in a 5% CO2 humidified incubator in 50% DMEM/50% F-12 medium (Life Technologies) supplemented with 10% FBS (Hyclone), 100 U/mL penicillin, 100 μg/mL streptomycin (Life Technologies), and 2 mM GlutaMAX (Life Technologies). On day 1 of the assay, cells were seeded at a 7,500 cells/well density in white poly-D-lysine-coated 384-well plates (Corning) with 25 μL medium, and were allowed to adhere overnight in the incubator. On day 2 of the assay, the medium was removed and replaced with 12 μL of assay buffer (Hank's Balanced Salt Solution/HBSS, 25 mM HEPES, and 1 mg/ml bovine serum albumin/BSA) containing dose-responses of test compounds. Compounds were serially diluted in DMSO and then diluted another 1000-fold in media to bring the final DMSO concentration to 0.1%. Cells were incubated with test compounds at 37° C. for 1 h, and followed by the addition of 12 μl of pre-warmed IL-13 (80 ng/mL in assay buffer) for stimulation. After incubating at 37° C. for 30 min, the assay buffer (containing compound and IL-13) was removed, and 10 μL of cell lysis buffer (25 mM HEPES, 0.1% SDS, 1% NP-40, 5 mM MgCl2, 1.3 mM EDTA, 1 mM EGTA, and supplement with Complete Ultra mini protease inhibitors and PhosSTOP from Roche Diagnostics). The plates were shaken at ambient temperature for 30 min before the addition of detection reagents. A mixture of biotin-anti-pSTAT6 and anti-STAT6 conjugated acceptor beads was added first and incubated at ambient temperature for 2 h, followed by the addition of streptavidin conjugated donor beads (Perkin Elmer). After a minimum of 2 h incubation, the assay plates were read on the EnVision plate reader. AlphaScreen luminescence signals were recorded and utilized to calculate the percent inhibition values based on DMSO and background controls.
For dose-response analysis, percent inhibition data were plotted vs. compound concentrations, and IC50 values were determined from a 4-parameter robust fit model with the Prism software. Results may also be expressed as the negative logarithm of the IC50 value, pIC50.
Test compounds having a lower IC50 value or higher pIC50 value in this assay show greater inhibition of IL-13 induced STAT6 phosphorylation.

[6] = tested on: IL-13 induced pSTAT6 in lung tissue; experiment: Murine model of IL-13 induced pSTAT6 induction in lung tissue; assay type: in vivo; details: mouse lung, oral aspiration 1 mg/mL 50 μL, IL-13 challenge 4 h post dose, pSTAT6 at 5 hours
Procedure: IL-13 is an important cytokine underlying the pathophysiology of asthma (Kudlacz et al. Eur. J. Pharmacol, 2008, 582, 154-161). IL-13 binds to cell surface receptors activating members of the Janus family of kinases (JAK) which then phosphorylate STAT6 and subsequently activates further transcription pathways. In the described model, a dose of IL-13 was delivered locally into the lungs of mice to induce the phosphorylation of STAT6 (pSTAT6) which is then measured as the endpoint.
Adult balb/c mice from Harlan were used in the assay. On the day of study, animals were lightly anesthetized with isoflurane and administered either vehicle or test compound (1 mg/mL, 50 μL total volume over several breaths) via oral aspiration. Animals were placed in lateral recumbency post dose and monitored for full recovery from anesthesia before being returned to their home cage. Four hours later, animals were once again briefly anesthetized and challenged with either vehicle or IL-13 (0.03 μg total dose delivered, 50 μL total volume) via oral aspiration before being monitored for recovery from anesthesia and returned to their home cage. One hour after vehicle or IL-13 administration, lungs were collected for both pSTAT6 detection using an anti-pSTAT6 ELISA (rabbit mAb capture/coating antibody; mouse mAb detection/report antibody: anti-pSTAT6-pY641; secondary antibody: anti-mouse IgG-HRP) and analyzed for total drug concentration as described above in Assay 3.
Selected compounds of the invention were tested in the assay. Activity in the model is evidenced by a decrease in the level of pSTAT6 present in the lungs of treated animals at 5 hours compared to the vehicle treated, IL-13 challenged control animals. The difference between the control animals which were vehicle-treated, IL-13 challenged and the control animals which were vehicle-treated, vehicle challenged dictated the 0% and 100% inhibitory effect, respectively, in any given experiment.

Sequence of JAK1 (P23458 whole entry): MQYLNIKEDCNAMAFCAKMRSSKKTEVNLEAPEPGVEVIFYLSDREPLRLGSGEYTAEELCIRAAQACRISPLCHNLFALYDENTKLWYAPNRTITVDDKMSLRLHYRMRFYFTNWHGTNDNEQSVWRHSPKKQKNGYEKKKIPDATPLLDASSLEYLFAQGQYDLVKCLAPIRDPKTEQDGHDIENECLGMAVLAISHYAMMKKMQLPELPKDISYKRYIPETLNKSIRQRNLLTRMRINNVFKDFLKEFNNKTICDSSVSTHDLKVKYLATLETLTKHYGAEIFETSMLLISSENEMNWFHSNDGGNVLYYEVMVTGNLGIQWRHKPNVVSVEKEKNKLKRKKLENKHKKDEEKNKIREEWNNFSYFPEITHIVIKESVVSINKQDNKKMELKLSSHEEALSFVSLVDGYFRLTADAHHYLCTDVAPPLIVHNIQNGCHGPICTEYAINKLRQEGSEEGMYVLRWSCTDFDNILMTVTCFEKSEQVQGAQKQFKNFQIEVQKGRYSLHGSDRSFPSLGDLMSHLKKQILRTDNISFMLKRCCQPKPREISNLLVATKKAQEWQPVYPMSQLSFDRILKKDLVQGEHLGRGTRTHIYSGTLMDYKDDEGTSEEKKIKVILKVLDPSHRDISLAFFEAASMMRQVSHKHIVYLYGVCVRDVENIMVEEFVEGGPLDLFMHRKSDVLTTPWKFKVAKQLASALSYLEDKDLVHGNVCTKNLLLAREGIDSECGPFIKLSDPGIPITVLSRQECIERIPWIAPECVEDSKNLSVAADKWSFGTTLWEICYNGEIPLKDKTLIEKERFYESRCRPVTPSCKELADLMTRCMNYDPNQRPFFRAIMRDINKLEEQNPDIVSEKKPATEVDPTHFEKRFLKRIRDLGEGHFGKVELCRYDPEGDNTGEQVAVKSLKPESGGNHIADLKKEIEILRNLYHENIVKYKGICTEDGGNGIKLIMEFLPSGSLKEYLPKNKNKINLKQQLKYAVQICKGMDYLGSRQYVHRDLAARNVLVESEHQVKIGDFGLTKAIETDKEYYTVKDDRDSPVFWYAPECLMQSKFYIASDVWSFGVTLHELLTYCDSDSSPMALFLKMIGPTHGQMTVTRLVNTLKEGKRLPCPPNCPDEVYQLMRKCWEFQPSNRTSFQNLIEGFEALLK

Structure (SMILES)	Ki [1]	Ki [2]	Ki [3]	Ki [4]	IC50 [5]	pSTAT6 inhibition Assay 4 [6]
CCc1cc(O)c(F)cc1-c1ccc2c(-c3nc4c([nH]3)CN(CC)[C@@H](C(=O)N3CCN(C(C)(C)C)CC3)C4)n[nH]c2c1 [Example 1-37]	0.1 nM	0.04 nM	0.5 nM	1.26 nM	5.9 nM	C (C represents between 25% and 40% inhibition)
CCCN1Cc2[nH]c(-c3n[nH]c4cc(-c5cc(F)c(O)cc5CC)ccc34)nc2C[C@H]1C(=O)N1C[C@@H]2C[C@H]1CN2C [Example 1, ((S)-2-(6-(2-ethyl-5-fluoro-4-hydroxyphenyl)-1H-indazol-3-yl)-5-propyl-4,5,6,7-tetrahydro-3H-imidazo[4,5-c]pyridin-6-yl)((1S,4S)-5-methyl-2,5-diazabicyclo-[2.2.1]heptan-2-yl)methanone]	0.05 nM	0.02 nM	0.08 nM	0.25 nM	5 nM	A (A represents between 60% and 80% inhibition)
CCc1cc(O)c(F)cc1-c1ccc2c(-c3nc4c([nH]3)CN(C(C)C)[C@H](C(=O)N3CC[C@H](N(C)C)C3)C4)n[nH]c2c1 [Example 3]	0.06 nM	0.02 nM	0.1 nM	0.4 nM	5.9 nM	B (B represents between 40% and 60% inhibition)
